Our source for the GFP fluorescence (kMESF) values is PubChem BioAssay AID2743 (NMMLSC, 2010).

The source made the active and inactive calls.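 How the source made its calls: active means fitted half-maximal concentration for change in GFP expression of 33 µM or less; inactive means the rest.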

This experiment can be described thus: potency of AGP1-GFP expression modulators in yeast, dose response, cell-based, flow cytometry, S. cerevisiae, MLPCN hits (AID 2743). Particulars: S. cerevisiae AGP1-GFP strain, flow cytometry GFP, 3 h; at 33 µM (top of the series).

Turning to `Clc1cccc(CN2COc3c(cc(Cl)c4cccnc34)C2)c1`, the GFP fluorescence (kMESF) was 35.6 kMESF (inactive).
As for `NC(=O)COc1ccc(C(=O)/C=C2/C(=O)Nc3ccccc32)cc1`, the figure is 46.2 kMESF (inactive).
In the case of `Cc1cc(O)c(C(=O)/C=C/c2ccc(Cl)cc2)c(=O)o1` it was 40.1 kMESF (inactive); in that of `O=[N+]([O-])c1cc(CN2CCN(c3ccccc3)CC2)c(O)c2ncccc12`, 27 kMESF (inactive).
For the molecule `O=C1NC(=O)N(Cc2ccco2)C(=O)/C1=C/c1ccc(-c2cccc([N+](=O)[O-])c2)o1`, the GFP fluorescence (kMESF) is 34.8 kMESF (inactive).
As for `O=C1C=CC(=O)N1c1ccc(OC(F)F)cc1`, the figure is 27.8 kMESF (inactive); as for `O=c1cc(CSc2ccc(Cl)cc2)nc(-c2ccccn2)[nH]1`, 25.7 kMESF (inactive); as for `COc1cc(/C=C2\C(=O)ON=C2c2ccc(Cl)cc2)ccc1O`, 33 kMESF (inactive).
For `Cc1ccc(NC(=O)c2ccc(Cl)c(N3C(=O)C=CC3=O)c2)cc1`, the GFP fluorescence (kMESF) is 27.1 kMESF (inactive).
As to `COc1ccc(/C=C/C(=O)C2C(=O)C=C(C)OC2=O)cc1O` (stereo not drawn), the GFP fluorescence (kMESF) is 43 kMESF (inactive).
Consider `COc1cc(NC(=O)c2cccc(C)c2)ccc1NC(=O)c1cc2ccccc2o1`, for which the GFP fluorescence (kMESF) is 44.2 kMESF (inactive).
With `CC(C)C(=O)NC(c1cccs1)c1cc([N+](=O)[O-])c2cccnc2c1O` (stereo not drawn), the GFP fluorescence (kMESF) was 38.9 kMESF (inactive).
For the molecule `O=[N+]([O-])c1ccc(Sc2nc3ccccc3o2)c([N+](=O)[O-])c1`, the GFP fluorescence (kMESF) was 37.2 kMESF (inactive).
As for `COc1cc(/C=C/c2ccc3c(Br)cc(Br)c(O)c3n2)ccc1O`, the GFP fluorescence (kMESF) was 27.7 kMESF (inactive).
Turning to `CCN1/C(=C/C=C/c2sc3ccccc3[n+]2CC)Sc2ccccc21`, the GFP fluorescence (kMESF) was 70 kMESF (inactive).
As for `CCCS(=O)(=O)c1nnnn1-c1cccc(OC)c1`, the GFP fluorescence (kMESF) is 35.1 kMESF (inactive).
As for `CCCCCCCCCCCCCCCC[n+]1cccc2ccccc21`, the GFP fluorescence (kMESF) was 2.67 kMESF (inactive).
On to `O=C(O)c1ccn2c(C(=O)c3ccccc3)c(-c3ccccc3)cc2c1`, for which the GFP fluorescence (kMESF) is 37.7 kMESF (inactive).
For the molecule `COc1cccc(/C=C/C(=O)c2c(O)cc(C)oc2=O)c1O`, the GFP fluorescence (kMESF) is 43.2 kMESF (inactive).
In the case of `COc1ccc(C(=O)NC(=S)NNC(=O)c2cnccn2)cc1OC`, the GFP fluorescence (kMESF) is 30.2 kMESF (inactive).
On to `Oc1ccc(COCc2ccccc2)c2cccnc12`, for which the GFP fluorescence (kMESF) is 36.3 kMESF (inactive).
As for `C[n+]1ccc(/C=C/c2c[nH]c3ccccc23)cc1`, the GFP fluorescence (kMESF) was 44 kMESF (inactive).
As for `Cc1cccc2c1NC(=O)/C2=C\C(=O)c1cccs1`, the figure is 43.9 kMESF (inactive); as for `CC(=O)Oc1oc(-c2ccccc2)nc1C=Nc1ccccc1`, 33.5 kMESF (inactive).
In the case of `COC(=O)/C(=C/c1c[nH]c2ccccc12)[N+](=O)[O-]`, the GFP fluorescence (kMESF) was 39.1 kMESF (inactive).
Take `O=C1C=CC(=O)N1c1cccc(-c2ccccc2)c1`: the GFP fluorescence (kMESF) is 44.7 kMESF (inactive).
As for `Cc1ccc(N/N=C(\C#N)C(N)=S)c(C)c1`, the GFP fluorescence (kMESF) was 38 kMESF (inactive).
For the molecule `O=C(NC(=S)NNC(=O)c1cnccn1)c1ccc(F)cc1`, the GFP fluorescence (kMESF) is 37.3 kMESF (inactive).
As for `O=C(Oc1c(Cl)cc(Cl)c2cccnc12)c1cccs1`, the GFP fluorescence (kMESF) was 25.9 kMESF (inactive).
Take `CCn1c(/C=C/c2ccc([N+](=O)[O-])o2)nc2ccccc2c1=O`: the GFP fluorescence (kMESF) is -51 kMESF (inactive).
In the case of `Cc1cc(C2CCCCC2)n(O)c(=O)c1` it was 37.5 kMESF (inactive); in that of `CC(C)C[C@]1(c2ccccc2)ON(c2ccccc2C(F)(F)F)C1=O`, 34.6 kMESF (inactive).
For `CC1(C)OC(c2ccccc2)=C/C(=C/C=C2C(=O)NC(=S)NC2=O)O1`, the GFP fluorescence (kMESF) is 36.6 kMESF (inactive).
